Like-named read-outs stand apart in the source and are kept apart here.
Legend:
D2 (h) = molecular target: T1, D2 (h) (Homo sapiens, UniProt P14416); assay: Competition assay to measure binding affinity at D2L receptor; settings: test ligand 10 μM; [3H]methylspiperone 0.3 nM
T1 construct: host or cells: HEK-293 cells

5-HT2C (h) = molecular target: T2, 5-HT2C (h) (Homo sapiens, UniProt P28335); assay: Competition assay to measure binding affinity at 5-HT2C receptor; settings: test ligand 10 μM; [125I](±)DOI 0.1 nM
T2 construct: host or cells: HEK-293 cells
T2 sequence (P28335 33-458): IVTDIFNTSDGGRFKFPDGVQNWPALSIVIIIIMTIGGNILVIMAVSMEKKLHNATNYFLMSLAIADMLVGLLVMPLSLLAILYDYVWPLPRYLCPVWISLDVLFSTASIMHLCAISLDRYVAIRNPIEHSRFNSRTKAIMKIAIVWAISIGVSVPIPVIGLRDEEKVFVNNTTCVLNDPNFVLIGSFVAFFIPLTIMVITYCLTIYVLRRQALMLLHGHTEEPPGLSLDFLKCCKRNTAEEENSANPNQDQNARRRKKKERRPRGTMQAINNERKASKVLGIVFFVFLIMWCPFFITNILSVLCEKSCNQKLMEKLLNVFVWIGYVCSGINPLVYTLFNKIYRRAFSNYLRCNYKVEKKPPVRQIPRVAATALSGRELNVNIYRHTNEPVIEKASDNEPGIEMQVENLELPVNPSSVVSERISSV

NET (h) = molecular target: T3, NET (h) (Homo sapiens, UniProt P23975); assay: Competition assay to measure binding affinity at norepinephrine transporter (NET); settings: test ligand 10 μM; [3H]nisoxetine 1 nM
T3 construct: host or cells: CHO cells
T3 sequence (P23975 whole entry): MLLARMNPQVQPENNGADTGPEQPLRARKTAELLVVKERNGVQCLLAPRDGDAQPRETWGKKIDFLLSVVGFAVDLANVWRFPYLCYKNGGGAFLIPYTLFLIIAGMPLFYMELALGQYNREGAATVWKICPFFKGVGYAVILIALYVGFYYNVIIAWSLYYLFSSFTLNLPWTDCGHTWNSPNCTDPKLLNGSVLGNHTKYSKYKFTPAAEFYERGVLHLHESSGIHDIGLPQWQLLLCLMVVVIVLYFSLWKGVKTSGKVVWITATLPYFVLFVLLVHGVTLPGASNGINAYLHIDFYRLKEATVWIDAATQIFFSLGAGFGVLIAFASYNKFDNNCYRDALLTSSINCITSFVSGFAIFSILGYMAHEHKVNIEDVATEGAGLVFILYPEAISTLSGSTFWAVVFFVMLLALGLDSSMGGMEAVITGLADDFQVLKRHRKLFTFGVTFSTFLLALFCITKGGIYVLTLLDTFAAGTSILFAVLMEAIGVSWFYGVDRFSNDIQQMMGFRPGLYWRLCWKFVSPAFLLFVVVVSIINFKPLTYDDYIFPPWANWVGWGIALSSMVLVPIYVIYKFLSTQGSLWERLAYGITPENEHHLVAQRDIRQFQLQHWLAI

5-HT2B (h) = molecular target: T4, 5-HT2B (h) (Homo sapiens, UniProt P41595); assay: Competition assay to measure binding affinity at 5-HT2B receptor; settings: test ligand 10 μM; [3H]mesulergine 2 nM
T4 construct: host or cells: CHO cells

MT1 (ML1A) (h) = molecular target: T5, MT1 (ML1A) (h) (Homo sapiens, UniProt P48039); assay: Competition assay to measure binding affinity at MT1 receptor; settings: test ligand 10 μM; [125I]2-iodomelatonin 0.01 nM
T5 construct: host or cells: CHO cells
T5 sequence (P48039 whole entry): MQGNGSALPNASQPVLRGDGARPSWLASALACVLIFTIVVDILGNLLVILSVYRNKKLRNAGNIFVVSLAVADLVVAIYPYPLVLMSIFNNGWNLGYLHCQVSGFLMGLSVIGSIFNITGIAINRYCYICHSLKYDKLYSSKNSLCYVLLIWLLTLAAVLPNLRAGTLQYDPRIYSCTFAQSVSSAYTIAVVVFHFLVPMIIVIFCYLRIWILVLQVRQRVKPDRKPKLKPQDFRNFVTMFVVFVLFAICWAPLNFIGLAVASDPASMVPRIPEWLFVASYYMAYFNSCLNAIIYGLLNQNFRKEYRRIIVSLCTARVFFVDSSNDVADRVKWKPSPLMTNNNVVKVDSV

5-HT1D (r) = molecular target: T6, 5-HT1D (r) (Rattus norvegicus, UniProt P28565); assay: Competition assay to measure binding affinity at 5-HT1D receptor; settings: test ligand 10 μM; [3H]serotonin 1 nM
T6 construct: host or cells: CHO cells
T6 sequence (P28565 whole entry): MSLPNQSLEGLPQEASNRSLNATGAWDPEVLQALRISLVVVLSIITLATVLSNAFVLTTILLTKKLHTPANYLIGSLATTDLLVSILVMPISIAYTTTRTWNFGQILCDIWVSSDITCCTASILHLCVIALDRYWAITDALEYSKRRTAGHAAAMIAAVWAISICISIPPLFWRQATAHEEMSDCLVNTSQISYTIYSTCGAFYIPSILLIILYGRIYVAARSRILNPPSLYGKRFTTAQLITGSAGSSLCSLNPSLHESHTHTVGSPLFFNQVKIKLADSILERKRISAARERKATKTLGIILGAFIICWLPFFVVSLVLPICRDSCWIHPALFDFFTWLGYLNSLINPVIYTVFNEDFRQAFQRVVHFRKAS

alpha2A (h) = molecular target: T7, alpha2A (h) (Homo sapiens, UniProt P08913); assay: Competition assay to measure binding affinity at alpha2A receptor; settings: test ligand 10 μM, [3H]RX 821002 1 nM; for inhibition at 10 µM: read-out: α-2A, percent of control-specific binding
T7 construct: host or cells: CHO cells
T7 sequence (P08913 1-465): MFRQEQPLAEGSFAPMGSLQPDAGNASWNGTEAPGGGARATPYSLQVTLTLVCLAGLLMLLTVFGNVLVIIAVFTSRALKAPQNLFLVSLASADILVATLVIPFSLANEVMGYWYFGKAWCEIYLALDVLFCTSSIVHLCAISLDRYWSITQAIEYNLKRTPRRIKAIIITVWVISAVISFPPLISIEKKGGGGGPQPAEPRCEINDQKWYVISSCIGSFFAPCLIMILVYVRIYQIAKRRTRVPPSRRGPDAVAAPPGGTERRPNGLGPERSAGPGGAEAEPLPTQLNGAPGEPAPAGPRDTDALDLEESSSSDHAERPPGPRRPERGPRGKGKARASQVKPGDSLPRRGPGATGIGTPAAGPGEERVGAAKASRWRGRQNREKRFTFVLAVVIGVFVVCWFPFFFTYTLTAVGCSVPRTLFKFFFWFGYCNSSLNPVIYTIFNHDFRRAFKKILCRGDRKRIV

[1] = molecular target: T8, human serotonin transporter (SERT) (Homo sapiens, UniProt P31645); assay: biochemical; assay type: binding
T8 construct: purchased PerkinElmer RBHSTM400UA
T8 sequence (P31645 whole entry): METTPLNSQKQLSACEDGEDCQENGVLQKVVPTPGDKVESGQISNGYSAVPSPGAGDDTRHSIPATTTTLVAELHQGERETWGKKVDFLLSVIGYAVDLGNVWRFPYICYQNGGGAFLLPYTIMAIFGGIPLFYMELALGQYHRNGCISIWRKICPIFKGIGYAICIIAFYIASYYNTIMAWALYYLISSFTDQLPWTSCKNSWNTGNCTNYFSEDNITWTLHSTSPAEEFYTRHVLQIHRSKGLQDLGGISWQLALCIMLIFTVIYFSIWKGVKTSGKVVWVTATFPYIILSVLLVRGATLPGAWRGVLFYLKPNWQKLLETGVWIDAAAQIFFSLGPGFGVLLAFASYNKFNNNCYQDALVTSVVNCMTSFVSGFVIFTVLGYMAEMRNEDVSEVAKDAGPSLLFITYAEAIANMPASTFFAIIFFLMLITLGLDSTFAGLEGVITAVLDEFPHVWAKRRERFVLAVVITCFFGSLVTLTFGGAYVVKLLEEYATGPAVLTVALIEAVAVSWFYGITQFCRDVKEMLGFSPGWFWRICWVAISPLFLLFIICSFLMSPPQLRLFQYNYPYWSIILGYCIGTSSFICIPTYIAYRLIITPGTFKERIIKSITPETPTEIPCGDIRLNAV

[2] = tested on: C57BL/6-Elite male and female mice; assay: Head Twitch Response (HTR) assay; assay type: in vivo, mouse; settings: i.p. 6 mg/kg, 15-to-30-minute window following drug administration
5-HT2A receptor = 5-HT2A receptor (Homo sapiens, UniProt P28223); assay: 5-HT2A receptor radioligand competition assay (SPA)
Chain of 5-HT2A receptor (P28223 whole entry): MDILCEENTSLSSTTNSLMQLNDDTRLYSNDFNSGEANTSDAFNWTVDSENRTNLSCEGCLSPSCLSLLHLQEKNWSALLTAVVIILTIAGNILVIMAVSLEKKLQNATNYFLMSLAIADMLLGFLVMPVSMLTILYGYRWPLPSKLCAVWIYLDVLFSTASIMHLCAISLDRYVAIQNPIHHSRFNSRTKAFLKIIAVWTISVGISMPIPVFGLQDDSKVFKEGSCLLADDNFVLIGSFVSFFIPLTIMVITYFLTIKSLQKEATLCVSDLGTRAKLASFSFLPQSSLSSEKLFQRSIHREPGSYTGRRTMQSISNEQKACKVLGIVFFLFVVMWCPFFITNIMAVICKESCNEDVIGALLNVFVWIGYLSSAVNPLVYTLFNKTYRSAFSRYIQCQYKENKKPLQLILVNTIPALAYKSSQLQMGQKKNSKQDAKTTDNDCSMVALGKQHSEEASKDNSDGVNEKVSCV

[3] = tested on: C57BL/6-Elite male and female mice; assay: Ear-Scratch Response (ESR) assay; assay type: in vivo, mouse; settings: i.p. 6 mg/kg, 15-to-30-minute window following drug administration
5-HT7 (h) = molecular target: T9, 5-HT7 (h) (Homo sapiens, UniProt P34969); assay: Competition assay to measure binding affinity at 5-HT7 receptor; settings: test ligand 10 μM; [3H]LSD 4 nM
T9 construct: host or cells: HEK-293 cells
T9 sequence (P34969 whole entry): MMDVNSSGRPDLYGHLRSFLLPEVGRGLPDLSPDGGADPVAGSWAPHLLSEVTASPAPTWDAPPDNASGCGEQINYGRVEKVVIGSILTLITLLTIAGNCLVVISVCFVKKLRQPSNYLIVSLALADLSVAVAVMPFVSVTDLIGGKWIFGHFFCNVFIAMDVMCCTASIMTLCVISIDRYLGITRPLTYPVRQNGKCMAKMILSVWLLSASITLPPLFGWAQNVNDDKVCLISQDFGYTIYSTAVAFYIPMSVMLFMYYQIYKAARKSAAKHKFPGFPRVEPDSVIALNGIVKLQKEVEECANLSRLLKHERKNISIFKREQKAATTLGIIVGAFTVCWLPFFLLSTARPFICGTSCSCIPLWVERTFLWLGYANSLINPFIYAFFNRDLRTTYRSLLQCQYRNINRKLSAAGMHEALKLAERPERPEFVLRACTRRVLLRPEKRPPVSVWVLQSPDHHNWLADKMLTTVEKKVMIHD

DAT (h) = molecular target: T10, DAT (h) (Homo sapiens, UniProt Q01959); assay: Competition assay to measure binding affinity at dopamine transporter (DAT); settings: test ligand 10 μM; [3H]BTCP 4 nM
T10 construct: host or cells: CHO cells
T10 sequence (Q01959 whole entry): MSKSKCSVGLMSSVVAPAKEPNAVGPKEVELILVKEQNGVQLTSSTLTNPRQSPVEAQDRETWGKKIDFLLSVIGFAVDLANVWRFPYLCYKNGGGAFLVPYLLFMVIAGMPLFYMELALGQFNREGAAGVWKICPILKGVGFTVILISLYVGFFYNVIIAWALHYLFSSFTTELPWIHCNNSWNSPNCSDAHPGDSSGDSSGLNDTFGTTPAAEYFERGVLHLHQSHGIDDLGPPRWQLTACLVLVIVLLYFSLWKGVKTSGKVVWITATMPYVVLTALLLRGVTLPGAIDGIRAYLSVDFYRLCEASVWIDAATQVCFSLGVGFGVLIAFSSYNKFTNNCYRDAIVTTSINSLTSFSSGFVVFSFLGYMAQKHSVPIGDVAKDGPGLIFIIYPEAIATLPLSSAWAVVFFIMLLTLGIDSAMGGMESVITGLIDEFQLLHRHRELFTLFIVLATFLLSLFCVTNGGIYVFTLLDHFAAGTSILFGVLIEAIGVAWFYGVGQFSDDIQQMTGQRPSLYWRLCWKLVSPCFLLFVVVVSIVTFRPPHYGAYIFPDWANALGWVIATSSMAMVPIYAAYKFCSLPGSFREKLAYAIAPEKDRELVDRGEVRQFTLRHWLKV

5-HT1B (h) = molecular target: T11, 5-HT1B (h) (Homo sapiens, UniProt P28222); assay: Competition assay to measure binding affinity at 5-HT1B receptor; settings: test ligand 10 μM; [3H]GR125743 1 nM
T11 construct: host or cells: Chem-1 (RBL) cells
T11 sequence (P28222 whole entry): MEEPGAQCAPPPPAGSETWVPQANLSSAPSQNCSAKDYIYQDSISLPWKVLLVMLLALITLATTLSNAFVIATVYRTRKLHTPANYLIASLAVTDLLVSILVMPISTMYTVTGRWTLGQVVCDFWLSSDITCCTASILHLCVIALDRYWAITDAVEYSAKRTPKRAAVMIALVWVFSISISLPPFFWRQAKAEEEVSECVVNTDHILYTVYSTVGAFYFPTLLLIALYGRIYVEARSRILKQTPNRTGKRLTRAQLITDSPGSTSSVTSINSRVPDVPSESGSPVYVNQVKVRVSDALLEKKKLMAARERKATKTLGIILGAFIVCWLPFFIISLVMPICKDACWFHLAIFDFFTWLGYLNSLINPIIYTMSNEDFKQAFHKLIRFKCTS

5-HT1A receptor [4] = molecular target: T12, 5-HT1A receptor (Homo sapiens, UniProt P08908); assay: 5-HT1A receptor radioligand competition assay (SPA); assay type: binding; settings: for 5-HT1A receptor binding, binding curve in words: FIGS. 35C-35L
T12 construct: purchased Perkin Elmer 6110501400UA
T12 sequence (P08908 1-422): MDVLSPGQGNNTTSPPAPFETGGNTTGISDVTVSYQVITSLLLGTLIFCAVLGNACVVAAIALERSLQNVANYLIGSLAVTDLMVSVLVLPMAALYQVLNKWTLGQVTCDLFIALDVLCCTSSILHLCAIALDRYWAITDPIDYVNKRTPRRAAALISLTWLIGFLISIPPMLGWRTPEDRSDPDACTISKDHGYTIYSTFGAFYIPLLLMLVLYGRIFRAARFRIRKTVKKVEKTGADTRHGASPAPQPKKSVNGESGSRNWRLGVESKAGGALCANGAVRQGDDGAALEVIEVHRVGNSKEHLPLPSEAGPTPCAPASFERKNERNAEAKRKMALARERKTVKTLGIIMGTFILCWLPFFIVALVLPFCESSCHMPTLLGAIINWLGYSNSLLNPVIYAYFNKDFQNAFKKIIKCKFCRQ

D3 (h) = molecular target: T13, D3 (h) (Homo sapiens, UniProt P35462); assay: Competition assay to measure binding affinity at D3 receptor; settings: test ligand 10 μM; [3H]methylspiperone […]
T13 construct: host or cells: CHO cells
T13 sequence (P35462 whole entry): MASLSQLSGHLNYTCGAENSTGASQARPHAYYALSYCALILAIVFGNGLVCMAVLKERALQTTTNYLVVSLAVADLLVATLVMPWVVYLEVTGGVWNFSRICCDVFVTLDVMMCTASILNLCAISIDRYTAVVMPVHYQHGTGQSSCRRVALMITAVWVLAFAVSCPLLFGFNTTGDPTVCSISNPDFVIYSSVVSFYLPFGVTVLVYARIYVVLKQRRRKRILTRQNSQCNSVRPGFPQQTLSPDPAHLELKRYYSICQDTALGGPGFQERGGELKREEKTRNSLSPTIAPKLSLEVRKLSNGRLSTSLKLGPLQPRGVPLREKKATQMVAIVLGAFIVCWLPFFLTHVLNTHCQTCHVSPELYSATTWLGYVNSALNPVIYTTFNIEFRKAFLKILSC

5-HT1A receptor [5] = molecular target: T12, 5-HT1A receptor; assay: Functional 5-HT1A receptor cAMP assay in CHO-K1/5-HT1A/Gα15 cells; assay type: cell-based
[6] = read-out: 5-HT2A, Ki, competition with 1 nM [3H]ketanserin, test compound 3 nM to 1 mM
[7] = competition with 0.5 nM 8-hydroxy-DPAT [3H], test compound 3 nM to 1 mM, read-out: 5-HT1A, Ki

T1 sequence (P14416 whole entry): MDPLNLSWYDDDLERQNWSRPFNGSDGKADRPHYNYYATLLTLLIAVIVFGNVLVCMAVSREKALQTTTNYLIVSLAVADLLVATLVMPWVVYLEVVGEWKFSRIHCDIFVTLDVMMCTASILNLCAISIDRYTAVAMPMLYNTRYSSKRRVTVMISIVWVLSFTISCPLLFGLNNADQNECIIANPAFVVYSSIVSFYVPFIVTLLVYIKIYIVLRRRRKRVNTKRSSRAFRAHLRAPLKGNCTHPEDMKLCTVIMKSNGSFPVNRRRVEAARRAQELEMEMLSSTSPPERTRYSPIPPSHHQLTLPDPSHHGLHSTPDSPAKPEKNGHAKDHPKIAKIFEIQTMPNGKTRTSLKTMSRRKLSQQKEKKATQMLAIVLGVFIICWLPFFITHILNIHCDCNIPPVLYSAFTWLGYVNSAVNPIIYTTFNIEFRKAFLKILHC

Row | SMILES | D2, percent of control-specific binding (D2 (h)) [%] | HT2C, percent of control-specific binding (5-HT2C (h)) [%] | NET, percent of control-specific binding (NET (h)) [%] | HT2B, percent of control-specific binding (5-HT2B (h)) [%] | MT1, percent of control-specific binding (MT1 (ML1A) (h)) [%] | HT1D, percent of control-specific binding (5-HT1D (r)) [%] | α-2A, percent of control-specific binding (alpha2A (h)) [%] | SERT binding, binding curve in words [1] | Ki ([1]; read-out: SERT, Ki) [µM] | incidences of HTR relative to vehicle-treated control mice [2] | Ki (5-HT2A receptor; [6]) [µM] | incidences of ESR relative to vehicle-treated control mice [3] | HT7, percent of control-specific binding (5-HT7 (h)) [%] | DAT, percent of control-specific binding (DAT (h)) [%] | HT1B, percent of control-specific binding (5-HT1B (h)) [%] | 5-HT1A receptor binding, binding curve in words (5-HT1A receptor [4]) | Ki (5-HT1A receptor [4]; [7]) [µM] | D3, percent of control-specific binding (D3 (h)) [%] | inhibition at 10 µM (alpha2A (h)) [%] | Ki [1] [µM] | further results
1 | CCOc1c(OC)cc(CCN)cc1OC [escaline] | 5 | 95 | 6 | 81 | 0 | 42 | 45 | bind SERT to varying degrees | 113 | Elevated incidences of HTR | 61 | Elevated incidences of ESR | 16 | 0 | 0 | binding to 5-HT1A receptor | 12.4 | 0 | – | – | –
2 | CNC(C)Cc1ccc2c(c1)OCO2 (stereo not shown) [MDMA, reference compound] | −10 | 96 | 3 | 85 | 1 | 18 | 27 | bind SERT to varying degrees | 5.8 | – | 39.9 | – | 58 | 28 | −21 | – | 11 | 18 | – | – | 5-HT1A receptor engagement (change in cAMP levels), in words (5-HT1A receptor [5]; +5-HT1A cells, 4 μM forskolin, FIGS. 37B-37H): mild; EC50 (5-HT1A receptor [5]; reduction of cAMP in +5-HT1A cells stimulated with 4 μM forskolin, 20 min, read-out: 5-HT1A, EC50): > 1000 µM
3 | CCCOc1c(OC)cc(CCN)cc1OC [proscaline, reference compound] | −11 | 97 | −9 | 85 | 3 | 25 | – | bind SERT to varying degrees | – | Elevated incidences of HTR | – | Elevated incidences of ESR | – | −2 | −13 | binding to 5-HT1A receptor | – | 4 | 40 | 251 | –
4 | c1cc2c(cc1CCN1CCOCC1)OCO2 [A(VII)] | 3 | 4 | 0 | 12 | 0 | 0 | – | – | – | Elevated incidences of HTR | – | Elevated incidences of ESR | 14 | 18 | 0 | – | 24.1 | 4 | 5 | 29.9 | Ki (5-HT2A receptor): 6 µM
5 | CC(Cc1ccc2c(c1)OCO2)NC1CCC1 (stereo not shown) [A(I)] | 15 | 28 | 62 | 37 | 2 | 0 | – | – | – | Elevated incidences of HTR | – | Elevated incidences of ESR | 5 | 98 | 0 | – | – | 24 | 35 | 1.1 | Ki (5-HT2A receptor): 517 µM; Ki (5-HT1A receptor [4]): 20.8 µM

— patent US12428408B2, “Fused heterocyclic mescaline derivatives” (Enveric Biosciences Canada Inc., priority 2022, dated 2025)
